In the supplement of paper PMC11451515:

Tested on: SEM cells
Assay: cell viability relative to DMSO control; higher = less cytotoxic
Details: 48 h
How it was run: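 Viability was expressed as a per-plate percentage of DMSO wells, with cell-free wells as background. Leukemia cells (NOMO1 or SEM at 500 cells/well, P12-Ichikawa at 1000 cells/well) were adapted for at least four passages in each medium and seeded in 1536-well plates (5 μl). Library compounds in DMSO were pin-dosed over an 11-point threefold series from 47 μM to 0.79 nM, and CellTiter-Glo One luminescence was read after 48 h at 37°C.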

[1] = HPLM + 10% dialyzed FBS, 0.000781 µM
[2] = HPLM + 10% dialyzed FBS, 0.00234 µM
[3] = HPLM + 10% dialyzed FBS, 0.00702 µM
[4] = HPLM + 10% dialyzed FBS, 0.0211 µM
[5] = HPLM + 10% dialyzed FBS, 0.0632 µM
[6] = HPLM + 10% dialyzed FBS, 0.19 µM
[7] = HPLM + 10% dialyzed FBS, 0.569 µM
[8] = HPLM + 10% dialyzed FBS, 1.71 µM
[9] = HPLM + 10% dialyzed FBS, 5.12 µM
[10] = HPLM + 10% dialyzed FBS, 15.4 µM
[11] = HPLM + 10% dialyzed FBS, 46.1 µM
[12] = RPMI 5 mM glucose + 10% FBS, 0.000781 µM
[13] = RPMI 5 mM glucose + 10% FBS, 0.00234 µM
[14] = RPMI 5 mM glucose + 10% FBS, 0.00702 µM
[15] = RPMI 5 mM glucose + 10% FBS, 0.0211 µM
[16] = RPMI 5 mM glucose + 10% FBS, 0.0632 µM
[17] = RPMI 5 mM glucose + 10% FBS, 0.19 µM
[18] = RPMI 5 mM glucose + 10% FBS, 0.569 µM
[19] = RPMI 5 mM glucose + 10% FBS, 1.71 µM
[20] = RPMI 5 mM glucose + 10% FBS, 5.12 µM
[21] = RPMI 5 mM glucose + 10% FBS, 15.4 µM
[22] = RPMI 5 mM glucose + 10% FBS, 46.1 µM
[23] = RPMI 5 mM glucose + 10% dialyzed FBS, 0.000781 µM
[24] = RPMI 5 mM glucose + 10% dialyzed FBS, 0.00234 µM
[25] = RPMI 5 mM glucose + 10% dialyzed FBS, 0.00702 µM
[26] = RPMI 5 mM glucose + 10% dialyzed FBS, 0.0211 µM
[27] = RPMI 5 mM glucose + 10% dialyzed FBS, 0.0632 µM
[28] = RPMI 5 mM glucose + 10% dialyzed FBS, 0.19 µM
[29] = RPMI 5 mM glucose + 10% dialyzed FBS, 0.569 µM
[30] = RPMI 5 mM glucose + 10% dialyzed FBS, 1.71 µM
[31] = RPMI 5 mM glucose + 10% dialyzed FBS, 5.12 µM
[32] = RPMI 5 mM glucose + 10% dialyzed FBS, 15.4 µM
[33] = RPMI 5 mM glucose + 10% dialyzed FBS, 46.1 µM

CNc1nc(-c2ccc3c(N)n[nH]c3c2)cc(N2C[C@@H](C(=O)NC3CCCCC3)CC[C@H]2C)n1
cell viability [1]: 72.6% | cell viability [2]: 90% | cell viability [3]: 83.9% | cell viability [4]: 81.1% | cell viability [5]: 83.1% | cell viability [6]: 84.7% | cell viability [7]: 59.8% | cell viability [8]: 57.3% | cell viability [9]: 60.3% | cell viability [10]: 48.5% | cell viability [11]: 14.3% | cell viability [12]: 89.8% | cell viability [13]: 85.9% | cell viability [14]: 102% | cell viability [15]: 108% | cell viability [16]: 88.8% | cell viability [17]: 113% | cell viability [18]: 82.1% | cell viability [19]: 78.8% | cell viability [20]: 71.5% | cell viability [21]: 47.9% | cell viability [22]: 2.66% | cell viability [23]: 80.6% | cell viability [24]: 90.7% | cell viability [25]: 76.8% | cell viability [26]: 76.1% | cell viability [27]: 79.4% | cell viability [28]: 83.1% | cell viability [29]: 71.2% | cell viability [30]: 57.9% | cell viability [31]: 63.1% | cell viability [32]: 50.7% | cell viability [33]: 10.9%

CCNC(=O)CCC/C=C\C[C@@H]1[C@@H](/C=C/C(O)CCc2ccccc2)[C@@H](O)C[C@@H]1O (stereo not given in full)
cell viability [1]: 96.2% | cell viability [2]: 116% | cell viability [3]: 100% | cell viability [4]: 98.8% | cell viability [5]: 115% | cell viability [6]: 104% | cell viability [7]: 104% | cell viability [8]: 108% | cell viability [9]: 108% | cell viability [10]: 91.2% | cell viability [11]: 87.4% | cell viability [12]: 95.4% | cell viability [13]: 112% | cell viability [14]: 110% | cell viability [15]: 98.7% | cell viability [16]: 118% | cell viability [17]: 111% | cell viability [18]: 117% | cell viability [19]: 118% | cell viability [20]: 111% | cell viability [21]: 98.2% | cell viability [22]: 100% | cell viability [23]: 89.6% | cell viability [24]: 117% | cell viability [25]: 128% | cell viability [26]: 107% | cell viability [27]: 120% | cell viability [28]: 109% | cell viability [29]: 102% | cell viability [30]: 106% | cell viability [31]: 114% | cell viability [32]: 107% | cell viability [33]: 81.3%

Nc1ccc(C(=O)c2cc3c(ccc4ccccc43)[nH]2)cc1
cell viability [12]: 118% | cell viability [13]: 137% | cell viability [14]: 124% | cell viability [15]: 130% | cell viability [16]: 129% | cell viability [17]: 102% | cell viability [18]: 109% | cell viability [19]: 110% | cell viability [20]: 32.1% | cell viability [21]: 15.9% | cell viability [22]: 8.45% | cell viability [23]: 121% | cell viability [24]: 130% | cell viability [25]: 117% | cell viability [26]: 126% | cell viability [27]: 138% | cell viability [28]: 104% | cell viability [29]: 100% | cell viability [30]: 95% | cell viability [31]: 27.9% | cell viability [32]: 12.1% | cell viability [33]: 11.3%

COc1ccc(F)c(F)c1C(=O)c1cnc(NC2CCN([S+](C)(=O)[O-])CC2)nc1N
cell viability [1]: 94.9% | cell viability [2]: 103% | cell viability [3]: 109% | cell viability [4]: 113% | cell viability [5]: 109% | cell viability [6]: 113% | cell viability [7]: 64.6% | cell viability [8]: 79% | cell viability [9]: 41.6% | cell viability [10]: 4.32% | cell viability [11]: 1.78% | cell viability [12]: 115% | cell viability [13]: 130% | cell viability [14]: 121% | cell viability [15]: 130% | cell viability [16]: 123% | cell viability [17]: 135% | cell viability [18]: 80.4% | cell viability [19]: 83.1% | cell viability [20]: 43.4% | cell viability [21]: 3.24% | cell viability [22]: 1.43% | cell viability [23]: 101% | cell viability [24]: 97.7% | cell viability [25]: 111% | cell viability [26]: 98.2% | cell viability [27]: 99.3% | cell viability [28]: 114% | cell viability [29]: 77.4% | cell viability [30]: 91.1% | cell viability [31]: 54.1% | cell viability [32]: 3.36% | cell viability [33]: 1.73%

C[C@@H]1CC[C@@]2(CC[C@]3(C)\C(=C/C[C@@H]4[C@@]5(C)CC[C@H](O)C(C)(C)[C@@H]5CC[C@@]34C)[C@@H]2[C@H]1C)C(O)=O
cell viability [1]: 85.6% | cell viability [2]: 109% | cell viability [3]: 111% | cell viability [4]: 110% | cell viability [5]: 112% | cell viability [6]: 116% | cell viability [7]: 123% | cell viability [8]: 122% | cell viability [9]: 108% | cell viability [10]: 117% | cell viability [11]: 121% | cell viability [12]: 105% | cell viability [13]: 101% | cell viability [14]: 108% | cell viability [15]: 96.2% | cell viability [16]: 113% | cell viability [17]: 123% | cell viability [18]: 109% | cell viability [19]: 99.2% | cell viability [20]: 102% | cell viability [21]: 114% | cell viability [22]: 61.6% | cell viability [23]: 107% | cell viability [24]: 116% | cell viability [25]: 114% | cell viability [26]: 111% | cell viability [27]: 112% | cell viability [28]: 118% | cell viability [29]: 118% | cell viability [30]: 136% | cell viability [31]: 129% | cell viability [32]: 118% | cell viability [33]: 110%

Nc1n[nH]c2nnc(-c3c(-c4ccccc4)nn4ccccc34)cc12
cell viability [1]: 93.5% | cell viability [2]: 109% | cell viability [3]: 109% | cell viability [4]: 115% | cell viability [5]: 116% | cell viability [6]: 127% | cell viability [7]: 124% | cell viability [8]: 109% | cell viability [9]: 113% | cell viability [10]: 92.2% | cell viability [11]: 9.4% | cell viability [12]: 113% | cell viability [13]: 114% | cell viability [14]: 107% | cell viability [15]: 121% | cell viability [16]: 122% | cell viability [17]: 131% | cell viability [18]: 121% | cell viability [19]: 117% | cell viability [20]: 117% | cell viability [21]: 100% | cell viability [22]: 17.3% | cell viability [23]: 116% | cell viability [24]: 102% | cell viability [25]: 119% | cell viability [26]: 126% | cell viability [27]: 114% | cell viability [28]: 125% | cell viability [29]: 134% | cell viability [30]: 123% | cell viability [31]: 137% | cell viability [32]: 116% | cell viability [33]: 21%

Cc1cc(Nc2ncc3c(n2)N(C)C(=O)N(c2cc(NC(=O)c4cccc(C(F)(F)F)c4)ccc2C)C3)n(C)n1
cell viability [1]: 88% | cell viability [2]: 105% | cell viability [3]: 101% | cell viability [4]: 88.2% | cell viability [5]: 115% | cell viability [6]: 82.3% | cell viability [7]: 50.1% | cell viability [8]: 17.8% | cell viability [9]: 10.8% | cell viability [10]: 5.81% | cell viability [11]: 3.72% | cell viability [12]: 101% | cell viability [13]: 114% | cell viability [14]: 111% | cell viability [15]: 95% | cell viability [16]: 116% | cell viability [17]: 79.4% | cell viability [18]: 40.2% | cell viability [19]: 11.9% | cell viability [20]: 7.97% | cell viability [21]: 5.5% | cell viability [22]: 3.3% | cell viability [23]: 108% | cell viability [24]: 117% | cell viability [25]: 114% | cell viability [26]: 93.8% | cell viability [27]: 128% | cell viability [28]: 81.3% | cell viability [29]: 41% | cell viability [30]: 11.5% | cell viability [31]: 6.61% | cell viability [32]: 4.65% | cell viability [33]: 2.51%
